Consider one compound from patent US20260327239A1, “COMPOUNDS FOR COVALENT INHIBITION OF SHP2” (Purdue Research Foundation, priority 2023, published 2026).

The target in the assay is T1, PTP1B (Homo sapiens, UniProt P18031).
T1 sequence (P18031 1-435): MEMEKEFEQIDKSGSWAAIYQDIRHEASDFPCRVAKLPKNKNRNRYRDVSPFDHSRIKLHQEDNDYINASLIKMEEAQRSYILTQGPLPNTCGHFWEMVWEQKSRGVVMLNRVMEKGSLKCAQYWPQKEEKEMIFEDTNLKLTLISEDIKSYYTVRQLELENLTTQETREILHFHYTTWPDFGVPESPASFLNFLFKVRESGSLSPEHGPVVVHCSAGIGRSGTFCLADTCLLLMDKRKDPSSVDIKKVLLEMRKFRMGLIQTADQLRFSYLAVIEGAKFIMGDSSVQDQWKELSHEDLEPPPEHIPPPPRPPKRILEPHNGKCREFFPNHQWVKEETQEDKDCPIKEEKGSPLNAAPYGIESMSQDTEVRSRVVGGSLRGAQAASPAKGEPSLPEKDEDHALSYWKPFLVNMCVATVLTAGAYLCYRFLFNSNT
Briefly: Time-dependent IC50 determination, PTP1B (10 min preincubation, pNPP). It counts as biochemical. The protocol: During active compound characterization, other common PTPs, including SHP1. PTP1B, and LYP, were counter-screened. Compounds were incubated for 10 minutes with the corresponding PTP (4 μM) before being diluted 50-fold into a solution containing excess substrate para-nitrophenyl phosphate (10 mM) to monitor the remaining activity. […] This was not expected, given their high sequence and structural homology. […] While unexpected, the lower sequence homology provides a rationale for the observed selectivity.
Inhibitors were evaluated for their ability to inhibit the reaction catalyzed by SHP2 using para-nitrophenyl phosphate (pNPP) as a substrate at pH 7 and 25° C. The reaction was started in a clear flat-bottom 96-well plate (Corning Costar Assay Plate #9017) by the addition of 25 μL of 4 μM PTP in DMG buffer to 25 μl of 2× inhibitor (final concentrations=2 μM PTP, 100-0 μM inhibitor). Reactions were incubated for 1 or 10 minutes before transferring 4 μL into 196 μL of 10.1 mM pNPP in DMG buffer (final concentration=40 nM PTP, 10 mM pNPP). These wells were then allowed to react for 10, 45, or 3 minutes for SHP1 and SHP2, LYP, PTP1B respectively before quenching with 50 μL of 5 M NaOH. Plates were then read for absorbance at 405 nm using a CLARIOstar^Plus plate reader (BMG Labetch). […]

For `C=C1C(=O)[C@@]2(C(=O)N3CCN(c4ccc(I)cc4)CC3)CC(=O)C[C@@H]1C2` [Compound 37], the concentration for half-maximal inhibition (IC50) (PTP1B, 10 minutes preincubation, curve not completed (solubility), extrapolated, read-out: 10 Minute IC50) is 677 µM. Further, where the note is “SHP2 over PTP1B”, the “Fold-Selective (10 Minutes)” value turned out to be 44.56.
